Patent publication US12472269B2, “Liver-specific inducible promoters and methods of use thereof” (ASKBIO INC., priority 2019, dated 2025)

T1: human CAR (Homo sapiens, UniProt Q14994)
T1 sequence (Q14994 1-352): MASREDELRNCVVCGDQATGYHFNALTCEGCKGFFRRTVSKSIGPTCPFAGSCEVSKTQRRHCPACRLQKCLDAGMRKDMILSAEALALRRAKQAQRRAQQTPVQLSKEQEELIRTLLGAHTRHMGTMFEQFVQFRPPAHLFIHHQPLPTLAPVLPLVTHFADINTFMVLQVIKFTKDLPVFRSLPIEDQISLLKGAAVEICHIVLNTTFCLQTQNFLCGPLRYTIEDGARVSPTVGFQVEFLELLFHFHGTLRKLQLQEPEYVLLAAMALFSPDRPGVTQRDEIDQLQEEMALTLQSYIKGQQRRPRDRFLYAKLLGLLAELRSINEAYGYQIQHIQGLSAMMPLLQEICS

B1: Human NR1x3-MinTK: 3× human NR1 region with MinTK minimal promoter, SEQ ID NO: 59 (nucleic acid)
DNA: ACTGTACTTTCCTGACCCTGAAGAGACTGTACTTTCCTGACCCTGAAGAGACTGTACTTTCCTGACCCTGAAGAGGATCCGGCCCCGCCCAGCGTCTTGTCATTGGCGAATTCGAACACGCAGATGCAGTCGGGGCGGCGCGGTCCGAGGTCCACTTCGCATATTAAGGTGACGCGTGTGGCCTCGAACACCGAGCGACCCTGCAGCGACCCGCTTAACAGCGTCAACAGCGTGCCGCAGATCTCGAGGAGCTTGGCGAGATTTTCAGGAGCT
modifications: Human NR1x3-Min TK

How the values were obtained:
[1] = test system: Huh7 cell line stably expressing human CAR; test: Induction of PBREM variants by CITCO and flavone in Huh7 cell line stably expressing human CAR; format: cell-based
Text: (§1) In the earlier examples, variants of the promoters used contained a mouse PBREM element. To confirm our expectation that the human PBREM element could also be used, we also assessed the inducibility of the human PBREM; this is potentially relevant because one aim of this project is to provide inducible promoters for use in human gene therapy, and the human sequence may have some advantages. In addition, we also assessed human and mouse hybrids of the PBREM element to determine if we could modulate or improve the inducibility and background level of the promoters. Such new combinations would not be found in nature in any context, and would likely to have novel traits, e.g. background and induction level. The constructs were tested in the PGL4.10 backbone as previously described, and are listed below in Table 2. These were: Human NR1×3-Min TK (3× human NR1 region with MinTK minimal promoter); Human PBREM-minTK (human PBREM with MinTK minimal promoter); hNR1-mNF1-hNR2-Min TK (Human Mouse Human hybrid with MinTK minimal promoter); hNR1-mNFI mNR2-Min TK (Human Mouse Mouse hybrid with MinTK minimal promoter); mNR1-hNF1-mNR2-Min TK (Mouse Human Mouse hybrid with MinTK minimal promoter); mNR1-hNF1-hNR2-Min TK (Mouse Human Human hybrid with MinTK minimal promoter); hPB-SV40 (human PBREM with SV40 minimal promoter); and MHM-SV40 (Mouse Human Mouse hybrid with SV40 minimal promoter)—SEQ ID NOs: 59 to 66, respectively.
(§2) These constructs were tested in the Huh7 stable cell line and primary hepatocytes as previously described. In addition, to testing the constructs with the traditional human CAR activator CITCO we also tested the natural compound flavone. […] CITCO has been predicted to be relatively unstable in vivo, and there is no data available for its safety of use in humans, and is therefore preferred for use only in tissue culture. Furthermore, the in vivo results presented above used phenobarbital as the inducer. In some contexts the use of phenobarbital may be undesirable, even if at 10× less than the recommended dose (which appears to be possible in view of the data above). Therefore, flavone may be a more desirable inducer that mitigates any safety or regulatory issues.
(§3) Expression and induction from these promoters was assessed using both CITCO and flavone in both the Huh7 CAR expressing stable cell line and primary hepatocytes as previously described.

[2] = test system: primary hepatocytes; test: Induction of PBREM variants by CITCO and flavone in primary hepatocytes; format: cell-based, human
Text: as §1, §2, §3

[3] = molecular target: T1, human CAR; conditions: cited from earlier work
[4] = monomers compared with PB1 (FIG. 9), multimers with PB1-2 (FIG. 11)
[5] = monomers compared with PB1 (FIG. 10), multimers with PB1-2 (FIG. 12)

Row | Molecule | induction ([1]; CITCO and flavone) | background [1, 4] | induction ([2]; CITCO and flavone) | background [2, 5] | activation of human CAR [3] | further results
1 | MHM hybrid: Mouse Human Mouse hybrid PBREM element (SEQ ID NO: 74), tested with Min-Tk and SV40 minimal promoters (DNA TCTGTACTTTCCTGACCTTGAAGAGGTGGCACCATCAACTTGCCTGACACC; expressed or natural sequence) | good induction | lower background | good induction | lower background | – | overall activity / expression level [1, 4]: lower overall activity; overall activity / expression level [2, 5]: lower overall activity
2 | O=c1cc(-c2ccccc2)oc2ccccc12 [flavone, reference compound] | – | – | – | – | previously been reported to activate human CAR | concentration demonstrated suitable to induce expression ([1]; administered to cells): 30 µM
3 | Clc1cnc(Oc2ccc(Oc3ncc(Cl)cc3Cl)cc2)c(Cl)c1 [TCPOBOP, 1,4-Bis[2-(3,5-dichloropyridyloxy)]benzene] | – | – | – | – | does not activate human CAR | –
4 | hPB: human PBREM element (SEQ ID NO: 2), tested with Min-TK and SV40 minimal promoters (DNA ACTGTACTTTCCTGACCCTGAAGAGGTGGCAGCATGGACTTTCCTGAACCA; expressed or natural sequence; listed as Homo sapiens) | – | – | – | – | – | performance (inducibility and background) compared with PB1 ([1]; CITCO and flavone, FIG. 9): almost identical manner to the mouse PBREM (PB1); performance (inducibility and background) compared with PB1 ([2]; CITCO and flavone, FIG. 10): almost identical manner to the mouse PBREM (PB1)
5 | B1 | only induced in the stable cell line | relatively high background | less so in the primary cells | relatively high background | – | –
